What follows are compounds tested on beet armyworm (Spodoptera exigua) (assay: Insecticidal test for beet armyworm, treated diet surface). Details: 100 μg/cm^2 on diet surface, first instar larvae, 32 insects per treatment, observations 24, 48 and 96 hours.
Format: in vivo
Procedure: The compounds identified in Table 8 were prepared according to the previous methods and were tested against beet armyworm and corn earworm as follows:
Insecticidal Test for Beet Armyworm (Spodoptera exigua).
To prepare the test solution, the test compound was Formulated at 3499 ppm in solution as 5 mg compound/1.429 mL of 9 parts acetone: 1 part deionized H2O and vortexed to homogenize. 50 μL of the 3499 ppm (equivalent to 100 μg/cm^2 dose on diet surface area) test solution was pipetted upon the surface of 1 mL of solidified cool Southland Products Incorporated Beet Armyworm Diet (201 Stuart Island Road Lake Village, Ark. 71653) using an Eppendorf Repeater Plus with a 1 mL pipette tip. All pipetting of treatments was done in a Labconco Hood. Thirty minutes were allowed for the acetone to evaporate leaving a dose of 100 μg/cm^2 on the surface of the artificial diet. Two 24 hour old first instar Beet Armyworm (Spodoptera Exigua) larvae were placed in each well of the 128 well Bio-BA 128 Bioassay trays (CD International, Pitman, N.J., 08071, USA) using a #0 fine camel hair paint brush. Bioassay trays were sectioned into treatment groups of 8 with 16 replicates per treatment group (32 insects per treatment). Trays containing the treated diet and larvae were covered with a Bio-CV-16 cover (CD International, Pitman, N.J., 08071, USA) and then placed on a rack under florescent lights at 27° C., 20% relative humidity (RH) in the room, and 16 hr light: 8 hr dark for 96 hours. Observations were made 24, 48 and 96 hours after treatment and infestation. The number of insects dead were counted out of the 32 insects total per treatment and the results are given in a table as a percent mortality at a dose of 100 μg/cm^2. When finished, the tray was moved to the −5° C. freezer and left for 24 hr to insure mortality of the remaining S. exigua. After 24 hours, dispose of entire tray into waste bin.
Keys to the table: Mortality refers to activity against beet army worm (Spodoptera exigua) as defined above at the concentration of 100 μg/cm^2 (A=76-100% mortality, B=51-75% mortality, C=26-50% mortality and D=0-25% mortality).
In the case of `Fc1cccc(Cl)c1-c1nc(NN=Cc2ccc(OC(F)(F)F)cc2)nc(Nc2ccc(Cl)nc2)n1` [Example 13, 4-(2-chloro-6-fluorophenyl)-N-(6-chloropyridin-3-yl)-6-(2-(4-(trifluoromethoxy)benzylidene)hydrazinyl)-1,3,5-triazin-2-amine], the mortality at 100 µg/cm2 is reported as 76 to 100%. Compound `FC(F)(F)Oc1ccc(C=NNc2nc(Nc3ccc(Cl)cc3)nc(-c3ccc(OC(F)(F)F)cc3)n2)cc1` [Example 3, N-(4-chlorophenyl)-4-(2-(4-(trifluoromethoxy)benzylidene)hydrazinyl)-6-(4-(trifluoromethoxy)phenyl)-1,3,5-triazin-2-amine] has a mortality at 100 µg/cm2 of 26 to 50%. Work on `Fc1cccc(Cl)c1-c1nc(NCC2CCOC2)nc(NN=Cc2ccc(OC(F)(F)F)cc2)n1` (stereo not drawn) [Example 26, 4-(2-chloro-6-fluorophenyl)-N-((tetrahydrofuran-3-yl)methyl)-6-(2-(4-(trifluoromethoxy)benzylidene)hydrazinyl)-1,3,5-triazin-2-amine] yielded a mortality at 100 µg/cm2 of 0 to 25%. For `Fc1cccc(Cl)c1-c1nc(NN=CCc2ccccc2)nc(Nc2ccc(Cl)cc2)n1` [Example 20, 4-(2-chloro-6-fluorophenyl)-N-(4-chlorophenyl)-6-(2-(2-phenylethylidene)hydrazinyl)-1,3,5-triazin-2-amine], the mortality at 100 µg/cm2 was 76 to 100%. `Fc1cccc(Cl)c1-c1nc(NCc2ccc(Cl)nc2)nc(NN=Cc2ccc(OC(F)(F)F)cc2)n1` [Example 22, 4-(2-chloro-6-fluorophenyl)-N-((6-chloropyridin-3-yl)methyl)-6-(2-(4-(trifluoromethoxy)benzylidene)hydrazinyl)-1,3,5-triazin-2-amine] gave a mortality at 100 µg/cm2 of 76 to 100%. With `N#Cc1ccc(C=NNc2nc(Nc3ccc(Cl)cc3)nc(-c3c(F)cccc3Cl)n2)cc1` [Example 18] the mortality at 100 µg/cm2 was 76 to 100%. Compound `FC(F)(F)Oc1ccc(C=NNc2nc(Nc3ccc(Cl)nc3)nc(-c3c(Cl)cccc3Cl)n2)cc1` [Example 16, N-(6-chloropyridin-3-yl)-4-(2,6-dichlorophenyl)-6-(2-(4-(trifluoromethoxy)benzylidene)hydrazinyl)-1,3,5-triazin-2-amine] has a mortality at 100 µg/cm2 of 76 to 100%. With `Fc1cccc(F)c1-c1nc(NCc2ccc(Cl)nc2)nc(NN=Cc2ccc(OC(F)(F)F)cc2)n1` [Example 8, N-((6-chloropyridin-3-yl)methyl)-4-(2,6-difluorophenyl)-6-(2-(4-(trifluoromethoxy)benzylidene)hydrazinyl)-1,3,5-triazin-2-amine] the mortality at 100 µg/cm2 was 76 to 100%. For `Fc1cccc(Cl)c1C=NNc1nc(Nc2ccc(Cl)cc2)nc(-c2ccc(OC(F)(F)F)cc2)n1` [Example 48, 4-(2-(2-chloro-6-fluorobenzylidene)hydrazinyl)-N-(4-chlorophenyl)-6-(4-(trifluoromethoxy)phenyl)-1,3,5-triazin-2-amine], the mortality at 100 µg/cm2 was 76 to 100%. Compound `Fc1cccc(F)c1-c1nc(NN=Cc2ccc(OC(F)(F)F)cc2)nc(Nc2cccc(C(F)(F)F)c2)n1` [Example 7, 4-(2,6-difluorophenyl)-6-(2-(4-(trifluoromethoxy)benzylidene)hydrazinyl)-N-(3-(trifluoromethyl)phenyl)-1,3,5-triazin-2-amine] has a mortality at 100 µg/cm2 of 0 to 25%. `COc1cccc(-c2nc(NN=Cc3ccc(OC(F)(F)F)cc3)nc(Nc3ccc(Cl)cc3)n2)c1` [Example 29, N-(4-chlorophenyl)-4-(3-methoxyphenyl)-6-(2-(4-(trifluoromethoxy)benzylidene)hydrazinyl)-1,3,5-triazin-2-amine] showed a mortality at 100 µg/cm2 of 0 to 25%. Compound `Fc1cccc(F)c1-c1nc(NN=Cc2ccc(OC(F)(F)F)cc2)nc(Nc2ccc(Cl)cc2)n1` [Example 1, N-(4-chlorophenyl)-4-(2,6-difluorophenyl)-6-(2-(4-(trifluoromethoxy)benzylidene)hydrazinyl)-1,3,5-triazin-2-amine] has a mortality at 100 µg/cm2 of 76 to 100%. `Fc1cccc(Cl)c1-c1nc(NN=Cc2ccc(OC(F)(F)C(F)Cl)cc2)nc(Nc2ccc(Cl)cc2)n1` (stereo not drawn) [Example 37, 4-(2-(4-(2-chloro-1,1,2-trifluoroethoxy)benzylidene)hydrazinyl)-6-(2-chloro-6-fluorophenyl)-N-(4-chlorophenyl)-1,3,5-triazin-2-amine] gave a mortality at 100 µg/cm2 of 76 to 100%. `Fc1cccc(Cl)c1-c1nc(NCCN2CCOCC2)nc(NN=Cc2ccc(OC(F)(F)F)cc2)n1` [Example 24, 4-(2-chloro-6-fluorophenyl)-N-(2-morpholinoethyl)-6-(2-(4-(trifluoromethoxy)benzylidene)hydrazinyl)-1,3,5-triazin-2-amine] showed a mortality at 100 µg/cm2 of 76 to 100%. In the case of `Fc1ccc(Nc2nc(NN=Cc3ccc(OC(F)(F)F)cc3)nc(-c3c(F)cccc3Cl)n2)cc1C(F)(F)F` [Example 35, 4-(2-chloro-6-fluorophenyl)-N-(4-fluoro-3-(trifluoromethyl)phenyl)-6-(2-(4-(trifluoromethoxy)benzylidene)hydrazinyl)-1,3,5-triazin-2-amine], the mortality at 100 µg/cm2 is reported as 76 to 100%. `Fc1cccc(Cl)c1-c1nc(NN=Cc2ccc(OC(F)(F)C(F)F)cc2)nc(Nc2ccc(Cl)cc2)n1` [Example 11, 4-(2-chloro-6-fluorophenyl)-N-(4-chlorophenyl)-6-(2-(4-(1,1,2,2-tetrafluoroethoxy)benzylidene)hydrazinyl)-1,3,5-triazin-2-amine] showed a mortality at 100 µg/cm2 of 76 to 100%. Work on `FC(F)(F)Oc1ccc(C=NNc2nc(Nc3ccc(Cl)cc3)nc(-c3c(Cl)cccc3Cl)n2)cc1` [Example 14, N-(4-chlorophenyl)-4-(2,6-dichlorophenyl)-6-(2-(4-(trifluoromethoxy)benzylidene)hydrazinyl)-1,3,5-triazin-2-amine] yielded a mortality at 100 µg/cm2 of 51 to 75%. In the case of `Fc1cccc(F)c1-c1nc(NN=Cc2ccc(OC(F)(F)F)cc2)nc(Nc2ccc(OC(F)(F)F)cc2)n1` [Example 6, 4-(2,6-difluorophenyl)-6-(2-(4-(trifluoromethoxy)benzylidene)hydrazinyl)-N-(4-(trifluoromethoxy)phenyl)-1,3,5-triazin-2-amine], the mortality at 100 µg/cm2 is reported as 26 to 50%. `Fc1ccccc1-c1nc(NN=Cc2ccc(OC(F)(F)F)cc2)nc(Nc2ccc(Cl)nc2)n1` [Example 42, N-(6-chloropyridin-3-yl)-4-(2-fluorophenyl)-6-(2-(4-(trifluoromethoxy)benzylidene)hydrazinyl)-1,3,5-triazin-2-amine] was tested, and the mortality at 100 µg/cm2 was 76 to 100%. Compound `CC(=NNc1nc(Nc2ccc(Cl)cc2)nc(-c2c(F)cccc2Cl)n1)c1ccc(OC(F)(F)F)cc1` [Example 21, 4-(2-chloro-6-fluorophenyl)-N-(4-chlorophenyl)-6-(2-(1-(4-(trifluoromethoxy)phenyl)ethylidene)hydrazinyl)-1,3,5-triazin-2-amine] has a mortality at 100 µg/cm2 of 76 to 100%. With `FC(F)(F)Oc1ccc(C=NNc2nc(Nc3ccc(Cl)cn3)cc(-c3ccccc3)n2)cc1` [Example 49, N-(5-chloropyridin-2-yl)-6-phenyl-2-(2-(4-(trifluoromethoxy)benzylidene)hydrazinyl)pyrimidin-4-amine] the mortality at 100 µg/cm2 was 0 to 25%. Compound `COc1ccc(-c2nc(NN=Cc3ccc(OC(F)(F)F)cc3)nc(Nc3ccc(Cl)cc3)n2)cc1` [Example 30, N-(4-chlorophenyl)-4-(4-methoxyphenyl)-6-(2-(4-(trifluoromethoxy)benzylidene)hydrazinyl)-1,3,5-triazin-2-amine] has a mortality at 100 µg/cm2 of 0 to 25%. `Fc1cccc(Cl)c1-c1nc(NN=Cc2ccc(OC(F)(F)F)cc2)nc(Nc2ccc(Cl)c(Cl)c2)n1` [Example 38, 4-(2-chloro-6-fluorophenyl)-N-(3,4-dichlorophenyl)-6-(2-(4-(trifluoromethoxy)benzylidene)hydrazinyl)-1,3,5-triazin-2-amine] gave a mortality at 100 µg/cm2 of 76 to 100%. `FC(F)(F)Oc1ccc(C=NNc2nc(Nc3ccc(Cl)cc3)nc(-c3ccc(Cl)c(Cl)c3)n2)cc1` [Example 32, N-(4-chlorophenyl)-4-(3,4-dichlorophenyl)-6-(2-(4-(trifluoromethoxy)benzylidene)hydrazinyl)-1,3,5-triazin-2-amine] was tested, and the mortality at 100 µg/cm2 was 0 to 25%. In the case of `Fc1ccc(Nc2nc(NN=Cc3ccc(OC(F)(F)F)cc3)nc(-c3c(F)cccc3Cl)n2)cc1Cl` [Example 34, N-(3-chloro-4-fluorophenyl)-4-(2-chloro-6-fluorophenyl)-6-(2-(4-(trifluoromethoxy)benzylidene)hydrazinyl)-1,3,5-triazin-2-amine], the mortality at 100 µg/cm2 is reported as 76 to 100%. `Cc1ccc(-c2nc(NN=Cc3ccc(OC(F)(F)F)cc3)nc(Nc3ccc(Cl)cc3)n2)cc1` [Example 33, N-(4-chlorophenyl)-4-(p-tolyl)-6-(2-(4-(trifluoromethoxy)benzylidene)hydrazinyl)-1,3,5-triazin-2-amine] was tested, and the mortality at 100 µg/cm2 was 0 to 25%. `Fc1cccc(Cl)c1-c1nc(NN=Cc2ccc(OC(F)(F)F)cc2)nc(Nc2ccccc2Cl)n1` [Example 41, 4-(2-chloro-6-fluorophenyl)-N-(2-chlorophenyl)-6-(2-(4-(trifluoromethoxy)benzylidene)hydrazinyl)-1,3,5-triazin-2-amine] was tested, and the mortality at 100 µg/cm2 was 76 to 100%.

Reference: patent US8785630B2, “Insecticidal triazines and pyrimidines” (Vestaron Corporation, priority 2011, dated 2014)
